The target of test [1] is T1, aldose reductase (Bos taurus, UniProt P16116).
T1 construct: isolated in known manner from bovine lenses; from tissue; host or cells: bovine lenses
Description: in vitro inhibition of partially purified aldose reductase isolated from bovine lenses (spectrophotometric). The class given is biochemical. To be noted: read-out: IC50 in the in vitro test. From the text:
Thus, in a standard procedure partially purified aldose reductase is isolated in known manner from bovine lenses. The percentage inhibition of this enzyme's ability in vitro to catalyse the reduction of aldoses to polyhydric alcohols, and particularly to reduce glucose or sorbitol, caused by a test compound can then be determined using standard spectrophotometric methods.

In test [2] the target is T2, aldose reductase (Rattus norvegicus, UniProt P07943).
T2 construct: the eye lenses and/or sciatic nerves are removed; from tissue; host or cells: rat eye lenses and/or sciatic nerves (in vivo, streptozotocin-diabetic rats)
The test can be described thus: in vivo inhibition of aldose reductase in streptozotocin diabetic rats (residual sorbitol levels in eye lenses and/or sciatic nerves). To be noted: dosed daily for one, two or five days, read-out: ED50 in the in vivo test. As to the method:
Rats are made diabetic (as evidenced by severe glucosuria being present) by dosing with streptozotocin. The animals are then dosed daily with the test compound for one, two or five days. The animals are then sacrificed 2-6 hours after the final dose and the eye lenses and/or sciatic nerves are removed. After a standard work-up procedure the residual sorbitol levels in each tissue are determined by gas liquid chromatography after conversion to the polytrimethylsilyl derivatives. Inhibition of aldose reductase in vivo can then be assessed by comparing the residual sorbitol levels in tissues from the dosed diabetic group of rats with those of an undosed group of diabetic rats and an undosed, normal group of rats.

These results are taken from US5102905A, “Thienyl benzothienyl and dibenzothienyl compounds as inhibitors of aldose reductase” (Imperial Chemical Industries PLC, priority 1988, dated 1992).

`O=[N+]([O-])CS(=O)(=O)c1cccs1` [Example 1, 2-(nitromethylsulphonyl)thiophene]: in test [1], the IC50 was found to be 54 nM. Further, the ED50 in test [2] amounted to 2.1 mg/kg.
